Key:
[1] = target: T1, Interstitial collagenase (Homo sapiens, UniProt P03956); assay: Inhibition of MMP-1 (unknown origin) expressed in Escherichia coli BL21(DE3) and measured for 2 mins by enzymatic assay
T1 sequence (P03956 whole entry): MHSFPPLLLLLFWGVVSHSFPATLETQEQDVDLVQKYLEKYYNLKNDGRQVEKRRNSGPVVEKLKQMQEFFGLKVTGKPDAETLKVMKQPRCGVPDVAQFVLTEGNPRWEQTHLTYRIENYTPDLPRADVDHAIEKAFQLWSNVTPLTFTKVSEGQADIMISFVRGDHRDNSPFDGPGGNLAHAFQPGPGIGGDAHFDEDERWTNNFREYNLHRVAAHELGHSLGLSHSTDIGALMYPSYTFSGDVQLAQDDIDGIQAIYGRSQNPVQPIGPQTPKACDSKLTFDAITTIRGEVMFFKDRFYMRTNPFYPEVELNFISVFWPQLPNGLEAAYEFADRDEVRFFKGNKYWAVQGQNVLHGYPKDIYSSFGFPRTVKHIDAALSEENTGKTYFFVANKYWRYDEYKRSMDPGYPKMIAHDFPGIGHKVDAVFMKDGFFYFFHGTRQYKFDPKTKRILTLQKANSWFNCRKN

[2] = target: T2, 72 kDa type IV collagenase (Homo sapiens, UniProt P08253); assay: Inhibition of recombinant human MMP-2 using peptide substrate by ELISA
T2 sequence (P08253 whole entry): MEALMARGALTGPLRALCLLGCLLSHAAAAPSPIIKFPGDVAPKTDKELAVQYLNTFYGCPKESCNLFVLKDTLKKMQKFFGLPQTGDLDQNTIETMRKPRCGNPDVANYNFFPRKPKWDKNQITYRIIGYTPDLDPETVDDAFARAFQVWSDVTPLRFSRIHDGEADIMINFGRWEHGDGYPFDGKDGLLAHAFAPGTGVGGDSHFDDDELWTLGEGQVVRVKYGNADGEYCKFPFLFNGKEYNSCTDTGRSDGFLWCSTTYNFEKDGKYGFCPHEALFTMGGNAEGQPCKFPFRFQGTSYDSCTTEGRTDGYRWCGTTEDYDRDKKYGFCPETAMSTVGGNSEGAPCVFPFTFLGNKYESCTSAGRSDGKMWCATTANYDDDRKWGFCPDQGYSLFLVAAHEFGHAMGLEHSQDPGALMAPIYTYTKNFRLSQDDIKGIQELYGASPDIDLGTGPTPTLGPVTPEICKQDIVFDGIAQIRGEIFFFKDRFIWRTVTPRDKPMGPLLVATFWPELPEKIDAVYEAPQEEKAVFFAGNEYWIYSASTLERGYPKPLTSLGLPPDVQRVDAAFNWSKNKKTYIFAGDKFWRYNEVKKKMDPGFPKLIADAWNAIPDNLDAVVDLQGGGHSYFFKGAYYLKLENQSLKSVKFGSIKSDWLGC

[3] = tested on: Mus musculus; assay: Antitumor activity against SCID mouse with human tumor cell orthotopic implantation assessed as reduction in tumor growth at 50 mg/kg, ip for 6 weeks; format: functional; design: scale not given: the % may be the effect or the level left
[4] = target: Collagenase 3 (Homo sapiens, UniProt P45452); assay: Inhibition of recombinant human MMP-13 using peptide substrate by ELISA
[5] = target: T3, Macrophage metalloelastase (Homo sapiens, UniProt P39900); assay: Inhibition of recombinant human MMP-12 using peptide substrate by ELISA
T3 sequence (P39900 whole entry): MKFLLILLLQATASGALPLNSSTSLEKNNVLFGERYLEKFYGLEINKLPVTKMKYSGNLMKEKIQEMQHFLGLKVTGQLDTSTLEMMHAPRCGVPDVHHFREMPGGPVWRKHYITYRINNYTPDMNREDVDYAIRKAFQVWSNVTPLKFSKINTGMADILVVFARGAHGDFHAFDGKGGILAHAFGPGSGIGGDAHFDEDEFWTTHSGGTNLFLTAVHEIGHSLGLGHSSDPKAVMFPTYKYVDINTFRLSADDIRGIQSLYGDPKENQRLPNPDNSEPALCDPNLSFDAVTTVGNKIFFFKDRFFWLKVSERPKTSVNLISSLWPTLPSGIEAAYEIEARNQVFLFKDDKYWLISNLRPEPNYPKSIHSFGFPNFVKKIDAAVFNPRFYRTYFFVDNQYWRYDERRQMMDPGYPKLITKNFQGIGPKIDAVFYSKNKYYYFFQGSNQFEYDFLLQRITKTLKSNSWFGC

[6] = Half life in Sprague-Dawley rats at 150 mg/kg, ip; format: ADME, organism-based; conditions: rat, in vivo
[7] = tested on: B16-F10; assay: Antimetastatic activity in mouse B16-F10 xenografted C57BL mouse melanoma model assessed as reduction in metastasis loci at 12.5 to 50 mg/kg, ip; format: functional; design: scale not given: the % may be the effect or the level left; conditions: dose 12.5-50 mg/kg
[8] = tested on: Mus musculus; assay: Antimetastatic activity in SCID mouse with human tumor cell orthotopic implantation assessed as reduction in tumor metastasis at 50 mg/kg, ip for 6 weeks; format: functional; design: scale not given: the % may be the effect or the level left
[9] = target: T4, Neutrophil collagenase (Homo sapiens, UniProt P22894); assay: Inhibition of recombinant human MMP-8 using peptide substrate by ELISA
T4 sequence (P22894 whole entry): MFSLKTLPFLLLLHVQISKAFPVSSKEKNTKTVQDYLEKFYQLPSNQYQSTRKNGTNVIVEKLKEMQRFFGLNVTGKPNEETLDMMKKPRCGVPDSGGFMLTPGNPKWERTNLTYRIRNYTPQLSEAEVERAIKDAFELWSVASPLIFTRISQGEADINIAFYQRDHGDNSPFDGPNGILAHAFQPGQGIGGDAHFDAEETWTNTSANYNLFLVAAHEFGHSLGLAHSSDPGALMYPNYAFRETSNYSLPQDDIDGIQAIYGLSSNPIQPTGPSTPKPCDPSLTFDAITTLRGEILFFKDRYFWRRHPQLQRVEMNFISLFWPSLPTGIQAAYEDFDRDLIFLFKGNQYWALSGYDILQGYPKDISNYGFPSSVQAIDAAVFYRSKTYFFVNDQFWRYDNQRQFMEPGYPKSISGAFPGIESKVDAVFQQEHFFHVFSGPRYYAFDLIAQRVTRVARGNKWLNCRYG

[10] = target: Stromelysin-1 (Homo sapiens, UniProt P08254); assay: Inhibition of recombinant human MMP-3 using peptide substrate by ELISA
Chain of Stromelysin-1 (P08254 whole entry): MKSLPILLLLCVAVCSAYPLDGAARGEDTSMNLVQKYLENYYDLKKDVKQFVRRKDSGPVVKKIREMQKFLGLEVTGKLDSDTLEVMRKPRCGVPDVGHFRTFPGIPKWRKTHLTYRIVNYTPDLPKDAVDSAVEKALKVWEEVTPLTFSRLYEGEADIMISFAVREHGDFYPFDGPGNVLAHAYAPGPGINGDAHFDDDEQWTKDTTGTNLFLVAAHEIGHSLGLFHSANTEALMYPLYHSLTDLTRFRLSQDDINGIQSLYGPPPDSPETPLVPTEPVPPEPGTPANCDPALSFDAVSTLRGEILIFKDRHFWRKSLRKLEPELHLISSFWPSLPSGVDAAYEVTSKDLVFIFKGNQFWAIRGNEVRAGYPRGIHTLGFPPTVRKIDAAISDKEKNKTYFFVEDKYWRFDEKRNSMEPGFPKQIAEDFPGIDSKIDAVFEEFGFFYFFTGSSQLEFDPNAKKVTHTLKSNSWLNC

[11] = target: T5, Matrix metalloproteinase-9 (Homo sapiens, UniProt P14780); assay: Inhibition of recombinant human MMP-9 using peptide substrate by ELISA
T5 sequence (P14780 whole entry): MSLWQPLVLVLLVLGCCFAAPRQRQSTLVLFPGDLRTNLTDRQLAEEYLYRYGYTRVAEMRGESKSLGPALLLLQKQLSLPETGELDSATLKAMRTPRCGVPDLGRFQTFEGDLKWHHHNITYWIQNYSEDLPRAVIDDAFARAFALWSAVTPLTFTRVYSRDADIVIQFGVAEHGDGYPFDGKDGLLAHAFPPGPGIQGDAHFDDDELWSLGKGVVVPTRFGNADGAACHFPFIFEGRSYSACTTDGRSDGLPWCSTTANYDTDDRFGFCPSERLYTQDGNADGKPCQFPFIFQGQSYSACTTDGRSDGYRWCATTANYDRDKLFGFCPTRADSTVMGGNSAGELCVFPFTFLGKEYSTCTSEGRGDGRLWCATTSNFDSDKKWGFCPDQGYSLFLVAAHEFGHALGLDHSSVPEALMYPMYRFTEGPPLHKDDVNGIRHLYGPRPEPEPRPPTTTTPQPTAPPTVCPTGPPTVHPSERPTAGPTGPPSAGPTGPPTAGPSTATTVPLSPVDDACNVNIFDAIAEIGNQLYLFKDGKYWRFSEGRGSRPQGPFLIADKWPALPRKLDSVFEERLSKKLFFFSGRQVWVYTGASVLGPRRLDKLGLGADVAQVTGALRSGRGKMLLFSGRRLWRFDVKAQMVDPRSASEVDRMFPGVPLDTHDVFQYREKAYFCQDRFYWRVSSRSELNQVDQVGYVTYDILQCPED

[12] = Inhibition of recombinant human TACE using peptide substrate by ELISA
[13] = tested on: B16-F10; assay: Inhibition of cell invasion in mouse B16-F10 cells at 100 uM by Matrigel invasion assay; format: functional
[14] = target: T1, Interstitial collagenase; assay: Inhibition of recombinant human MMP-1 using peptide substrate by ELISA
[15] = Half life in Sprague-Dawley rats at 50 mg/kg, iv; format: ADME, organism-based; conditions: rat, in vivo
[16] = Half life in Sprague-Dawley rats at 150 mg/kg, po; format: ADME, organism-based; conditions: rat, in vivo
[17] = target: T4, Neutrophil collagenase; assay: Inhibition of MMP-8 (unknown origin) using Mca-Pro-Leu-Gly-Leu-Dpa-Ala-Arg-NH2 as substrate preincubated for 30 mins followed by substrate addition for 2 to 4 hrs by fluorimetric assay
[18] = target: T6, Matrix metalloproteinase-14 (Homo sapiens, UniProt P50281); assay: Inhibition of MMP-14 (unknown origin) using Mca-Pro-Leu-Gly-Leu-Dpa-Ala-Arg-NH2 as substrate preincubated for 30 mins followed by substrate addition for 2 to 4 hrs by fluorimetric assay
[19] = target: T5, Matrix metalloproteinase-9; assay: Inhibition of MMP-9 (unknown origin) using Mca-Pro-Leu-Gly-Leu-Dpa-Ala-Arg-NH2 as substrate preincubated for 30 mins followed by substrate addition for 2 to 4 hrs by fluorimetric assay
[20] = target: T3, Macrophage metalloelastase; assay: Inhibition of recombinant human MMP-12 by ELISA
[21] = target: T1, Interstitial collagenase; assay: Inhibition of MMP-1 (unknown origin) using 7-(methoxycoumarin-4yl)acetyl-Pro-Leu-Gly-Leu-(N-3-[2,4-dinitrophenyl]- L-2,3-diamino-propionyl)-Ala-Arg-NH2 as fluorogenic substrate for 45 mins by fluorogenic analysis
[22] = target: T1, Interstitial collagenase; assay: Inhibition of human MMP-1 using Mca-Pro-Leu-Gly-Leu-Dpa-Ala-Arg-NH2 as substrate preincubated for 1 hr followed by susbstrate addition by fluorescent analysis
[23] = target: T6, Matrix metalloproteinase-14; assay: Inhibition of human MMP-14 using Mca-Pro-Leu-Gly-Leu-Dpa-Ala-Arg-NH2 as substrate preincubated for 1 hr followed by susbstrate addition by fluorescent analysis
[24] = target: T2, 72 kDa type IV collagenase; assay: Inhibition of human MMP-2 using Mca-Pro-Leu-Gly-Leu-Dpa-Ala-Arg-NH2 as substrate preincubated for 1 hr followed by susbstrate addition by fluorescent analysis
[25] = target: T4, Neutrophil collagenase; assay: Inhibition of human MMP-8 using Mca-Pro-Leu-Gly-Leu-Dpa-Ala-Arg-NH2 as substrate preincubated for 1 hr followed by susbstrate addition by fluorescent analysis

O=C(NO)C1c2ccc(O)cc2CCN1S(=O)(=O)c1cc(Cl)ccc1Cl (stereo not given)
IC50 [1]: 50000 nM

NC1CCCCC1NC(=O)P(=O)(O)O (stereo not given)
IC50 [2]: 4 nM
Activity [3]: 60%
IC50 [4]: > 100 nM
IC50 [5]: > 100 nM
half-life [6]: 1.8 h
Activity [7]: 50%
Activity [8]: 90%
IC50 [9]: > 100 nM
IC50 [10]: > 100 nM
IC50 [11]: 20 nM
IC50 [12]: > 100 nM
inhibition at 100 µM [13]: 90%
IC50 [14]: > 100 nM
half-life [15]: 0.313 h
half-life [16]: 2.1 h

O=P(O)(O)C(NS(=O)(=O)c1ccc(-c2ccc(Cl)cc2)cc1)P(=O)(O)O
IC50 [17]: 320 nM
IC50 [18]: > 1000 nM
IC50 [19]: > 1000 nM

CC(C)CC(C(=O)NC(c1noc(Sc2ccccc2)n1)C(C)(C)C)C(O)C(=O)NO (stereo not given)
IC50 [20]: 20 nM

C=C[C@@H]1OC(Cc2ccccc2)=N[C@H]1CO
Ki [21]: > 500000 nM

Cc1cc(=O)c(O)c(C(=O)NCc2ccc(-c3ccc(-c4ccccc4)cc3)cc2)o1
IC50 [22]: > 50000 nM
IC50 [23]: > 2000 nM
IC50 [24]: > 2000 nM
IC50 [25]: > 2000 nM

Reference: ChEMBL document CHEMBL5113513, “Selective Inhibitors of Medium-Size S1' Pocket Matrix Metalloproteinases: A Stepping Stone of Future Drug Discovery” (J Med Chem, 2022)
